# Data: ChEMBL document CHEMBL1201862, “PubChem BioAssay data set” (2004)
# Active and inactive are the calls of the source.
# Key:
# [1] = HEp-2 cell cytotoxicity, dose response, cytotoxicity control for RSV inhibitor project, HTS (AID 2410); format: functional; conditions: human respiratory syncytial virus
# [2] = target: Cytochrome P450 2C9 (Homo sapiens, UniProt P11712)
# [3] = target: Cytochrome P450 2C19 (Homo sapiens, UniProt P33261); assay: Cytochrome panel assay with activity outcomes. Panel member name: p450-cyp2c19 Compounds with AC50 equal or less than 10 uM are considered active; format: functional; conditions: read-out: AC50
# [4] = target: Cytochrome P450 2D6 (Homo sapiens, UniProt P10635);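 also: CYP2D6 member of a cytochrome P450 panel assay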
# [5] = target: Cytochrome P450 3A4 (Homo sapiens, UniProt P08684);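 also: CYP3A4 tested as one member of a cytochrome P450 panel screen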
# [6] = NIH-3T3 fibroblast cytotoxicity, dose response, cytotoxicity control, cell-based, fluorescence, Alamar Blue, secondary assay (AID 2327); format: functional;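 also: NIH-3T3 mouse fibroblasts cultured with fluconazole at 8 µg/mL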
# [7] = C. albicans growth with fluconazole, confirmation, fluorescence, retest (AID 2467); format: functional, cell-based
# [8] = target: T1, Rac GTPase-activating protein 1 (Homo sapiens, UniProt Q9H0H5); assay: MgcRacGAP GTPase-activating activity inhibitors, confirmation, biochemical, ADP Hunter fluorescence, primary and confirmatory (AID 624330); format: functional
# T1 sequence (Q9H0H5 whole entry): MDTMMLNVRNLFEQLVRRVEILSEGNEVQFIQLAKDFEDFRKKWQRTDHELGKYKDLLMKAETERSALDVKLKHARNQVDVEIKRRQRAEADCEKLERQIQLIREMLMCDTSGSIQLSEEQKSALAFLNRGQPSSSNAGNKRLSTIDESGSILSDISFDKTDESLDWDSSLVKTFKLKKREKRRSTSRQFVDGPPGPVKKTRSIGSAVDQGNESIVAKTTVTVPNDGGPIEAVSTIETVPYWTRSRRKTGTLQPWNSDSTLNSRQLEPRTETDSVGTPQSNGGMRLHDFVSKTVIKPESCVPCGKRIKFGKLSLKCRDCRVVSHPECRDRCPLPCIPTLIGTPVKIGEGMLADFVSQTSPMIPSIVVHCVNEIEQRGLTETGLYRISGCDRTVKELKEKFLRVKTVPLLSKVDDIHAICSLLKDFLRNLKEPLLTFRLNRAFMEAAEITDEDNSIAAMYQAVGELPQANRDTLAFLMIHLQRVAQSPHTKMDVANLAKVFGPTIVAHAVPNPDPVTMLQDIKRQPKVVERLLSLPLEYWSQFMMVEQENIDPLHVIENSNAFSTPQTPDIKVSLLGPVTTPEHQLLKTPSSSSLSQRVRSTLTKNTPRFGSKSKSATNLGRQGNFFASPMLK
# [9] = target: T2, Cytochrome P450 1A2 (Homo sapiens, UniProt P05177);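 also: PubChem cytochrome P450 panel assay, CYP1A2 panel member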
# T2 sequence (P05177 whole entry): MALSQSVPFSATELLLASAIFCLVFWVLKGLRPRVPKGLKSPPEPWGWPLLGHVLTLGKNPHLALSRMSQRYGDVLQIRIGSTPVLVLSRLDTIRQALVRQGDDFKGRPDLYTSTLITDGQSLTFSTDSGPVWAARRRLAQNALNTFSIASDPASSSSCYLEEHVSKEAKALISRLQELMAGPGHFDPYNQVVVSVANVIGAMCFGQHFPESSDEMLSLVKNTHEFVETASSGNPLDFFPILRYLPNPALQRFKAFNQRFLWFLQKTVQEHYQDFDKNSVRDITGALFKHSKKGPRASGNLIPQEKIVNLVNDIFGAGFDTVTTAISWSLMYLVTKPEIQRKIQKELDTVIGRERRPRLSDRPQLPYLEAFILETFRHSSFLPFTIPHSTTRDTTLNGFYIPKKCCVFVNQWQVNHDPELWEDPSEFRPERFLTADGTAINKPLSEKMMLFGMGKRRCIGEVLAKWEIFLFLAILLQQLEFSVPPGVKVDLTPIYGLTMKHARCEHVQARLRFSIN
# [10] = target: T3, Corticotropin-releasing factor receptor 2/Corticotropin-releasing factor-binding protein (Homo sapiens, UniProt P24387+Q13324); assay: activators of CRF receptor 2 with binding protein – uHTS hits, confirmation (AID 602473); format: functional; conditions: read-out: EC50_Mean
# T3 sequence (Q13324 whole entry): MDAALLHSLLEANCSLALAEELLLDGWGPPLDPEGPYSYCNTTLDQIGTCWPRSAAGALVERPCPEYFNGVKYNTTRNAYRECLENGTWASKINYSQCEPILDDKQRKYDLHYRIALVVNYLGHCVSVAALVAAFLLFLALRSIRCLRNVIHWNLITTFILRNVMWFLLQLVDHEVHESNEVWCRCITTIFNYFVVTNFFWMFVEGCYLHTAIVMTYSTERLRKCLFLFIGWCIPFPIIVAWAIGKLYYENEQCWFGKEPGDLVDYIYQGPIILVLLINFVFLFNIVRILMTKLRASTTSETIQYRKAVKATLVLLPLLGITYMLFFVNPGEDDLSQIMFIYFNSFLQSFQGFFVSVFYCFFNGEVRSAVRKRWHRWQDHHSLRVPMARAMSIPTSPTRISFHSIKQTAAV
# T3 sequence (P24387 whole entry): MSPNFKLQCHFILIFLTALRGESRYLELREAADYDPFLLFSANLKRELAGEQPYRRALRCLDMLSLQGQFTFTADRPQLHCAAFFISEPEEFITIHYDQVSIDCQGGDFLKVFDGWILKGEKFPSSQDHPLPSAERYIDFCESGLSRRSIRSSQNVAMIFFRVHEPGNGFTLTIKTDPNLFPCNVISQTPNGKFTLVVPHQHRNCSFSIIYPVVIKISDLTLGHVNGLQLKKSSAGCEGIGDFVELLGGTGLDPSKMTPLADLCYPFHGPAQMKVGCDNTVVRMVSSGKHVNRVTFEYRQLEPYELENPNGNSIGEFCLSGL
# [11] = target: T3, Corticotropin-releasing factor receptor 2/Corticotropin-releasing factor-binding protein; assay: Dose Response confirmation of uHTS hits for small molecule antagonists of the CRF-binding protein and CRF-R2 receptor complex.; format: functional; conditions: read-out: IC50_Mean
# [12] = test system: H4; assay: Luminescence Cell-Based Dose Response HTS to Identify Activators of 5'UTR Stem-Loop Driven Prion Protein mRNA Translation in H4 Neuroglioblastoma Cells. [Related pubchem assays: 1829 (Project Summary), 1814 (Primary HTS)]; format: functional; conditions: Homo sapiens
# [13] = Luminescence Cell-Based Dose Response HTS to Identify Activators of Luciferase Translation or Activity in H4 […] Cells. [Related pubchem assays: 1829 (Project Summary), 1814 (Primary HTS)]; format: functional
# Cytochrome P450 2C9, sequence (P11712 whole entry): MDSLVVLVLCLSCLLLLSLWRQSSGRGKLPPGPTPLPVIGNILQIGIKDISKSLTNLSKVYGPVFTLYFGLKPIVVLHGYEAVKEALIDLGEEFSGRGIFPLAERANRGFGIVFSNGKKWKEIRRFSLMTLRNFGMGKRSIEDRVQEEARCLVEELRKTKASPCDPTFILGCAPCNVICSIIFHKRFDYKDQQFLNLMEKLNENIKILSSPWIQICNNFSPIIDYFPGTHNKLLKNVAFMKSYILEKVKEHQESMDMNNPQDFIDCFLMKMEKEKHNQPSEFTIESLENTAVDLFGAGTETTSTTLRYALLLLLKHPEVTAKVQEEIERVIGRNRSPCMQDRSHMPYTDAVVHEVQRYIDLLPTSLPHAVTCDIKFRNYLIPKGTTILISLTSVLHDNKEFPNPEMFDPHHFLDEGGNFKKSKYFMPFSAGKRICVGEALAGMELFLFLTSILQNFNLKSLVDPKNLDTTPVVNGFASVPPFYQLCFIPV
# Cytochrome P450 2D6, sequence (P10635 whole entry): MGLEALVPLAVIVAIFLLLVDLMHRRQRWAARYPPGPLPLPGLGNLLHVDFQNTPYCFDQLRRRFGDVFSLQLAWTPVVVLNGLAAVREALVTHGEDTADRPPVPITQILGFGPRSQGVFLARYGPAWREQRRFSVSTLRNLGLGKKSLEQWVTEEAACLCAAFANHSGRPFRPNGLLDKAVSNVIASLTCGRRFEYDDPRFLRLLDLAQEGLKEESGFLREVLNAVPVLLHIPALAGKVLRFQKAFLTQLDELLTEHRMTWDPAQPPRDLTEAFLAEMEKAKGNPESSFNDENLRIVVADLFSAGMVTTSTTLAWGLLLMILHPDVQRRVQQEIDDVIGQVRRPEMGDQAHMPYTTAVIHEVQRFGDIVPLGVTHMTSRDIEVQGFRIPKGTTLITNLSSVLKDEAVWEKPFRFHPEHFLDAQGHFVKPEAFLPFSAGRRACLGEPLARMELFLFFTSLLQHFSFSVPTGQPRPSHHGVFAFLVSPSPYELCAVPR
# Cytochrome P450 2C19, sequence (P33261 whole entry): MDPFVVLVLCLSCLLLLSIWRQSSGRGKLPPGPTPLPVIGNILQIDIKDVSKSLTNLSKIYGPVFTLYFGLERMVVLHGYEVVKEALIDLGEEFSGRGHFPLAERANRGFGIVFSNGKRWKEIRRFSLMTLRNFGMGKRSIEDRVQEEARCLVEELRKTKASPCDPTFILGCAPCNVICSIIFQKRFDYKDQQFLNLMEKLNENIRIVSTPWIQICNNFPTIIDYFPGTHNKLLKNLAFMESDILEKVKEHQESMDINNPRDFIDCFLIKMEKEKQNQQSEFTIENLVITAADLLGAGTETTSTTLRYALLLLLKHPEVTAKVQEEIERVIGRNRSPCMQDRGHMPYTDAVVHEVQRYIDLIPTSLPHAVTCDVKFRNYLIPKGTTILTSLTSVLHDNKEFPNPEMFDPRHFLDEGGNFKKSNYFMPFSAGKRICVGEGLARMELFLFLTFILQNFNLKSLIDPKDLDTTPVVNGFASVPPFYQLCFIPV
# Cytochrome P450 3A4, sequence (P08684 whole entry): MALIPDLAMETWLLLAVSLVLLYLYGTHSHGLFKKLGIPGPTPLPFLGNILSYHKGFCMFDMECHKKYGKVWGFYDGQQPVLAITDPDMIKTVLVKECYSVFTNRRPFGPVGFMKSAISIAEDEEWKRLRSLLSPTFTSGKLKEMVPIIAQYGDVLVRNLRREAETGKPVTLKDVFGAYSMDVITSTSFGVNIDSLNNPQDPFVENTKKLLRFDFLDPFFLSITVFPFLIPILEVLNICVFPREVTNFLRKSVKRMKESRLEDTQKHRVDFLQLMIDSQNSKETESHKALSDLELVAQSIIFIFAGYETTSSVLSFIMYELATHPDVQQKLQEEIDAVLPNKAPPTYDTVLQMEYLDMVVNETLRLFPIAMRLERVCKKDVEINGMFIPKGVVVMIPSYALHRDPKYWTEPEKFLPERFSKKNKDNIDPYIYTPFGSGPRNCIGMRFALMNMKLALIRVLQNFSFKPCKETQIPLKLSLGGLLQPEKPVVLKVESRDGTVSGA
smiles,measurement,setting,value
CCc1cccc(NC(=O)c2cnn(-c3ccccc3)c2C)c1,CC50,[1],29.9 µM (active)
CCOC(=O)Nc1ccc(S(=O)(=O)NCc2ccccc2)cc1,AC50,[2],5.62 µM (inconclusive)
same,AC50,[3],2.24 µM (inconclusive)
same,AC50,[4],14.1 µM (inconclusive)
O=C1C(Cl)=C(Sc2nnc3c4ccccc4c4ccccc4c3n2)C(=O)c2ccccc21,AC50,[2],3.98 µM (inconclusive)
same,AC50,[4],3.98 µM (inconclusive)
same,AC50,[5],5.01 µM (inconclusive)
Cc1ccc(-n2nc3c(=O)n(CCCC(=O)NCc4ccccc4C)nc(C)c3c2C)cc1,CC50,[1],> 50 µM (active)
CCOC(=O)c1ccc(NC(=O)c2ccc(CO)c(C(=O)NC3CCN(C(=O)OCC)CC3)c2)cc1,EC50,[6],> 160 µM (inactive)
same,EC50,[7],> 38 µM (not active)
CCOC(=O)C1CCN(CCC(=O)Nc2ccc(F)cc2)CC1,EC50,[6],> 150 µM (inactive)
same,EC50,[7],5.18 µM (active)
CN(C(=O)c1ccc(COc2ccccc2Br)o1)c1ccccc1,CC50,[1],22.1 µM (active)
COc1cccc(Nc2ncc3ncc(=O)n(Cc4cccs4)c3n2)c1,AC50,[2],2.51 µM (inconclusive)
same,AC50,[3],3.98 µM (inconclusive)
same,AC50,[4],3.98 µM (inconclusive)
COc1cccc(OC)c1OCCCCN1CCCC1,IC50,[8],204 µM (active)
same,AC50,[9],15.8 µM (inconclusive)
same,AC50,[4],14.1 µM (inconclusive)
CCOC(=O)C1CCN(c2cc3c(cc2NC(=O)c2cc(OC)ccc2Br)n(C)c(=O)n3C)CC1,EC50,[10],> 53 µM (inactive)
same,IC50,[11],> 47.1 µM (inactive)
Cc1c(/C=C2\SC(=O)N(CC(=O)Nc3ccc4c(c3)OCO4)C2=O)c2ccccc2n1C,AC50,[9],3.16 µM (inconclusive)
same,AC50,[4],2.82 µM (inconclusive)
same,AC50,[5],0.2 µM (inconclusive)
CCc1nnc(NC(=O)C2CCN(C(=O)NC3CCCCC3)CC2)s1,AC50,[2],20 µM (inconclusive)
same,AC50,[3],0.158 µM (inconclusive)
N#Cc1ccc(Oc2nc(C(N)=O)cc(-c3ccccc3)n2)cc1,AC50,[3],25.1 µM (inconclusive)
CCCCCCCCCC(=O)NNC(=O)c1c(O)c2ccccc2n(CC)c1=O,EC50,[6],> 160 µM (inactive)
same,EC50,[7],> 38 µM (not active)
C=C(CC1([C@@H](NP(=O)(c2ccccc2)c2ccccc2)[C@H]2C[C@@H]2CCN(C(=O)OCC)S(=O)(=O)c2ccc(C)cc2)CC1)c1ccccc1,AC50,[2],5.01 µM (inconclusive)
same,AC50,[3],1.26 µM (inconclusive)
Cc1nc2ccc(NC(=O)COc3ccccc3)cc2s1,EC50,[6],> 150 µM (inactive)
same,EC50,[7],> 38 µM (not active)
Cc1ccccc1CN1CCN(CC(=O)NCCCN2CCN(c3ccc(F)cc3)CC2)C1=O,AC50,[2],12.6 µM (inconclusive)
same,AC50,[3],11.2 µM (inconclusive)
same,AC50,[5],25.1 µM (inconclusive)
CCNc1nc(NCC)n2c(SCc3ccc(F)cc3)nnc2n1,EC50,[10],> 53 µM (inactive)
same,IC50,[11],> 47.1 µM (inactive)
COc1cc(-c2c(-c3ccsc3)sc3ccccc23)cc(OC)c1OC,CC50,[1],33.7 µM (active)
N#Cc1ccc(S(=O)(=O)N2CCCN(c3nc4ccc(Cl)cc4s3)CC2)cc1,CC50,[1],> 50 µM (active)
COc1cc(OC)cc(C(=O)NNC(=O)Cc2ccc(OC)c(S(=O)(=O)N3CCOCC3)c2)c1,EC50,[6],> 150 µM (inconclusive)
same,EC50,[7],> 38 µM (not active)
CS(=O)(=O)Nc1cccc(-c2nccc(-n3ccnc3)n2)c1,AC50,[3],39.8 µM (inconclusive)
CCOc1ccc(/C=C2\CCC(C3CCCC3)C2=O)cc1 (stereo not drawn),EC50,[12],> 120 µM (not active)
same,EC50,[13],> 120 µM (not active)
O=S(=O)(Nc1ccc2c(c1)CCC2)c1cccs1,EC50,[10],> 53 µM (inactive)
same,IC50,[11],> 47.1 µM (inactive)
COc1ccc(S(=O)(=O)Nc2nc3ccccc3nc2NCC2CCCO2)cc1 (stereo not drawn),EC50,[10],> 53 µM (inactive)
same,IC50,[11],> 47.1 µM (inactive)
COC(=O)c1sccc1NC(=O)c1cc(-c2ccc(C)cc2)nc2ccccc12,AC50,[3],10 µM (inconclusive)
same,AC50,[9],14.1 µM (inconclusive)
OCCCN=C(S)Nc1ccc(Nc2ccccc2)cc1,IC50,[8],88 µM (active)
CCc1ccc(NC(=O)C2CCN(S(=O)(=O)c3c(C)nc(O)nc3O)CC2)cc1,AC50,[3],11.2 µM (inconclusive)
COc1cc(NC(=O)COC(=O)/C=C/c2ccc(O)c(OC)c2)cc(OC)c1,IC50,[8],51.7 µM (active)
COc1ccccc1OCC#CCn1ccnc1,IC50,[8],160 µM (active)
O=C(O)CN1CCN(Cc2ccccc2)C1=O,AC50,[2],11.2 µM (inconclusive)
same,AC50,[4],15.8 µM (inconclusive)
CCCCn1c(CN2CCN(C(=O)OCC)CC2)nc2c1c(=O)n(C)c(=O)n2C,EC50,[6],> 150 µM (inactive)
same,EC50,[7],> 38 µM (not active)
COC(=O)c1sccc1NS(=O)(=O)c1ccccc1,EC50,[10],> 53 µM (inactive)
same,IC50,[11],> 47.1 µM (inactive)
C=C1C(C(=O)Nc2ccccc2)C1C(=O)Nc1ccccc1 (stereo not drawn),EC50,[10],> 53 µM (inactive)
same,IC50,[11],> 47.1 µM (inactive)
COC(=O)CCC(=O)Nc1cccc2ccccc12,AC50,[3],20 µM (inconclusive)
CCOc1ccc(/C=N/NC(=O)C(C)N(c2ccc(OC)cc2)S(C)(=O)=O)cc1OCC (stereo not drawn),EC50,[10],> 53 µM (inactive)
same,IC50,[11],> 47.1 µM (inactive)
CCOc1ccccc1NC(=O)COC(=O)C1COc2ccccc2O1 (stereo not drawn),EC50,[10],> 53 µM (inactive)
same,IC50,[11],> 47.1 µM (inactive)
O=C1CC(c2ccccc2)CC(O)=C1/C=N/c1ccc(O)cc1 (stereo not drawn),IC50,[8],26 µM (active)
COc1ccccc1CNCCc1cccc(Cl)c1,IC50,[8],135 µM (active)
COc1ccc(C(=O)N/N=C/c2ccc(N3CCOCC3)s2)cc1OC,IC50,[8],110 µM (active)
CCOC(=O)N/N=C/c1ccccc1F,AC50,[3],35.5 µM (inconclusive)
c1cc(-c2sc(-c3ccncc3)c(-c3ccncc3)c2-c2ccncc2)ccn1,AC50,[9],3.16 µM (inconclusive)
same,AC50,[4],3.16 µM (inconclusive)
O=C1NC(Cc2c[nH]c3ccccc23)C(=O)N1Cc1cccc2ccccc12 (stereo not drawn),EC50,[10],> 53 µM (inactive)
same,IC50,[11],> 47.1 µM (inactive)
CC[C@H](NC(C)C)[C@H](O)c1ccc(O)c2[nH]c(=O)ccc12 [PROCATEROL],AC50,[9],39.8 µM (inconclusive)
same,AC50,[4],31.6 µM (inconclusive)
